Data from ChEMBL document CHEMBL1144272, “Generation of a new class of hNK(2) receptor ligands using the 'fragment approach'” (Bioorg Med Chem Lett, 2005).

Target: T1, Substance-K receptor (Homo sapiens, UniProt P21452)
T1 sequence (P21452 whole entry): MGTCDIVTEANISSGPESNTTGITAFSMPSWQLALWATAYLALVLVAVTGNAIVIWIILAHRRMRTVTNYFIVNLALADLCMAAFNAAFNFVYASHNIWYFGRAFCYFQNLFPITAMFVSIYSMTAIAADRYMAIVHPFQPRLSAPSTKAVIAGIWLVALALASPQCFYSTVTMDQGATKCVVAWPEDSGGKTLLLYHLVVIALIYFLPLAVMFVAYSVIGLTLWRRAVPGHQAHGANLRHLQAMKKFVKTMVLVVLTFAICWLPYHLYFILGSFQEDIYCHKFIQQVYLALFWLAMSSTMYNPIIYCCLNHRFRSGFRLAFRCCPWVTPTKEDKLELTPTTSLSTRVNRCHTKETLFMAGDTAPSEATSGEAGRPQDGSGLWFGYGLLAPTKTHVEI
Assay: Binding affinity for human tachykinin receptor 2 was measured by using [125I]NKA as radio ligand

Ki [nM]	Compound
> 1000	O=C(Nc1ccc(OCc2ccccc2)cc1)N[C@@H](Cc1ccccc1)C(=O)NCCCN1CCOCC1 (stereo in doubt; 31a (L))
100	O=C(Nc1ccc(OCc2ccccc2)cc1)N[C@H](Cc1ccccc1)C(=O)NCCCN1CCOCC1 (stereo in doubt; 31b (D))
1200	O=C(Nc1ccc(OCc2ccccc2)cc1)N[C@@H](Cc1ccccc1)C(=O)NCCCN1CCOCC1 (stereo in doubt; 32a (L))
630	O=C(Nc1ccc(OCc2ccccc2)cc1)N[C@H](Cc1ccccc1)C(=O)NCCCN1CCOCC1 (stereo in doubt; 32b (D))
